Patent US8492515B2 (priority 2008, dated 2013)
Bridge positions count the residues as written; N and C are the ends. Square brackets hold non-standard residues; d marks the D form. Ends that are not written are not given here. I, II: the chains in the order shown. Ac6c = NC1(C(=O)O)CCCCC1; Dab = NCC[C@H](N)C(=O)O

Tests used:
in vitro [1] = assay type: in vitro ADME, mouse
Method: The stability of peptide A3-APO was analyzed in commercially available pooled mouse serum diluted to 25% with distilled water as follows. It has been shown that dilution of serum linearly reduces the degradation rate of peptides without changing any other proteolytic parameters (Powell et al., 1992. J. Pharm. Sci. 81: 731-735). […] Specifically, ninety μL of pooled sterile mouse serum (Equitech-Bio, Kerrville, Tex.) was added to 10 μL of peptide A3-APO dissolved in distilled water at 1.28 mg/mL concentration. After incubation periods of 0, 15, 30, 60 or 90, 120 and 240 min at 37° C., 20 μL 15% trichloracetic acid (TCA) was added, the mixture stored at 4° C. for 20 minutes, and centrifuged at 13,000 rpm. The supernatant was submitted to determination of remaining amount of unmodified A3-APO peptide by MS and RP-HPLC.

in vitro [2] = assay type: in vitro ADME; conditions: mouse, serum
Method: The metabolic stability of peptide A3-APO in full serum in vitro was examined in peptide degredation studies in blood derived media. A3-APO was added to undiluted mouse serum preparation and was incubated in the full serum for 30 minutes. The serum proteins were precipitated and the serum was submitted for mass spectroscopic analysis.

E. coli HK179 [3] = conditions: HK179, 16 h
From the text: (§1) To investigate the activity of the A3-APO metabolites, Chex1-Arg20 single chain unit and an Arg7-Arg20 common cleavage fragment were synthesized and studied for their ability to kill Enterobacteriaceae strains in undiluted Muller-Hinton broth, a true measure of potential clinical viability (Otvos et al., 2005. J. Med. Chem. 48: 5349-5359). The peptides of the invention were made on a CEM Liberty automated synthesizer with standard Fmoc-chemistry. The peptides were detached from the resin with the carboxyl terminus of the C-terminal Arg residue being in the form of an amino amide, —C(O)—NH2 (“Chex1-Arg20-NH2” and “Arg7-Arg20-NH2”), while still in the microwave chamber, and were purified by RP-HPLC. […] The biological studies carried out on chemically synthesized peptides in this example and succeeding examples were carried out on the C-terminal modified versions of the peptides wherein the C-terminal carboxylic acid function was in the form of an amide, —C(O)—NH2. Antibacterial growth inhibition assays were performed using sterile 96-well polypropylene plates (Nunc F96 microtiter plates) in a final volume of 100 μL as described previously (Cudic et al., 2002. Peptides 23: 271-283). The cell concentrations were estimated by measuring the ultraviolet absorbance at 600 nm and applying the formula cfu/mL=A600(3.8×10^8), where cfu is the number of colony-forming units. Briefly, 50 μL of a suspension of midlogarithmic phase bacterial cultures diluted to 5×10^5 cfu/mL in Muller-Hinton broth (MHB) was added to 50 μL of serially diluted peptides also dissolved in MHB. The final peptide concentration was 128 μg/mL. Cultures were then incubated at 37° C., 5% CO2 for 16-20 h without shaking, and growth inhibition was measured by recording the absorbance at 600 nm using a microplate reader. […] The minimal inhibitory concentration indicates the lowest peptide dose where no visible bacterial growth is detected after 16 hours incubation in full strength Muller-Hinton broth at 37° C. The peptide Chex-pyrr-Dap dimer was also included in the study. […] (Cudic et al., 2002. Peptides 23: 271-283).

E. coli SEQ102 [4] = conditions: SEQ102, 16 h
From the text: as §1

K. pneumoniae HK123 = conditions: HK123, 16 h
From the text: as §1

S. typhimurium G10215 [5] = conditions: G10215, 16 h
From the text: as §1

[6] = test system: A. baumannii ATCC BBA-1605
From the text: as §1
(§2) Following the protocol of Example 2, minimal inhibitory concentrations of the Chex1-Arg20 peptide against selected bacteria was determined. […] A3-APO was included for comparison.

E. coli 045-849 = test system: E. coli 045-849
From the text: as §1, §2

E. coli 5770 = test system: E. coli 5770
From the text: as §1, §2

E. coli HK131 = test system: E. coli HK131
From the text: as §1, §2

E. coli HK179 [7] = test system: E. coli HK179
From the text: as §1, §2

E. coli SEQ102 [8] = test system: E. coli SEQ102
From the text: as §1, §2

E. coli SOTE40 = test system: E. coli SOTE40
From the text: as §1, §2

K. pneumoniae 012-3132 = test system: K. pneumoniae 012-3132
From the text: as §1, §2

K. pneumoniae HK 123 = test system: K. pneumoniae HK 123
From the text: as §1, §2

K. pneumoniae HK 127 = test system: K. pneumoniae HK 127
From the text: as §1, §2

K. pneumoniae HK 186 = test system: K. pneumoniae HK 186
From the text: as §1, §2

K. pneumoniae K6 = test system: K. pneumoniae K6
From the text: as §1, §2

P. aeruginosa 10 = test system: P. aeruginosa 10
From the text: as §1, §2

P. aeruginosa ATCC 39329 = test system: P. aeruginosa ATCC 39329
From the text: as §1, §2

[9] = test system: S. saprophyticus ATCC 15305
From the text: as §1, §2

[10] = test system: S. typhimurium ATCC 14028
From the text: as §1, §2

S. typhimurium G10215 [11] = test system: S. typhimurium G10215
From the text: as §1, §2

S. typhimurium S5 = test system: S. typhimurium S5
From the text: as §1, §2

I: [Ac6c]RPDKPRPYLPRPRPPRPVR[Dab] / II: [Ac6c]RPDKPRPYLPRPRPPRPVR (amide I:21-II:C (inferred)) [Peptide A3-APO, reference compound]
half-life at 0.128 mg/mL (in vitro [1]; 25% pooled mouse serum, 37° C.): ~3.83 h | original peptide amount remaining intact within the first hour (in vitro [1]; serum): almost half | metabolised at 0.5 h (in vitro [2]): ~35% | MIC against E. coli HK179 (E. coli HK179 [3]): 8 µg/mL | MIC against E. coli SEQ102 (E. coli SEQ102 [4]): 16 µg/mL | MIC against K. pneumoniae HK123 (K. pneumoniae HK123): 16 µg/mL | MIC against S. typhimurium G10215 (S. typhimurium G10215 [5]): 16 µg/mL | MIC, A. baumannii ATCC BBA-1605 [6]: 16 µg/mL | MIC, E. coli 045-849 (E. coli 045-849): 4 µg/mL | MIC, E. coli 5770 (E. coli 5770): 2 µg/mL | MIC, E. coli HK131 (E. coli HK131): 4 µg/mL | MIC, E. coli HK179 (E. coli HK179 [7]): 2 µg/mL | MIC, E. coli SEQ102 (E. coli SEQ102 [8]): 2 µg/mL | MIC, E. coli SOTE40 (E. coli SOTE40): 8 µg/mL | MIC, K. pneumoniae 012-3132 (K. pneumoniae 012-3132): 2 µg/mL | MIC, K. pneumoniae HK 123 (K. pneumoniae HK 123): 4 µg/mL | MIC, K. pneumoniae HK 127 (K. pneumoniae HK 127): 8 µg/mL | MIC, K. pneumoniae HK 186 (K. pneumoniae HK 186): 8 µg/mL | MIC, K. pneumoniae K6 (K. pneumoniae K6): 4 µg/mL | MIC, P. aeruginosa 10 (P. aeruginosa 10): 8 µg/mL | MIC, P. aeruginosa ATCC 39329 (P. aeruginosa ATCC 39329): 8 µg/mL | MIC, S. saprophyticus ATCC 15305 [9]: 2 µg/mL | MIC, S. typhimurium ATCC 14028 [10]: 8 µg/mL | MIC, S. typhimurium G10215 (S. typhimurium G10215 [11]): 4 µg/mL | MIC, S. typhimurium S5 (S. typhimurium S5): 8 µg/mL
